pIC50: −log10 of the molar value. Non-standard residues stand in square brackets, D forms with d. Residues, ends and D or L forms follow the SMILES beside them. Dip = N[C@H](C(=O)O)C(c1ccccc1)c1ccccc1
Assays:
[1] = tested on: MCF-7; format: cell-based, human; details: 24 h
Method: (§1) Tumor cells were plated in 96-well flat-bottom microtitration plates (Nunc, Dutscher, Brumath, France) and incubated at 37° C. for 24 hours before treatment in 190 μl of drug-free culture medium supplemented or not with 10% FBS for adherent or suspension growing cell lines, respectively.
(§2) The adherent cell lines were washed once with 200 μl FBS-free culture medium before treatment. […] top dose of 400 μM (range 4×10^−4 to 4×10^−10 M), with 1% (final concentration) Triton X-100 as positive control and FBS-free culture medium as negative control. The cells (190 μl) were incubated in a 200 μl final volume of FBS-free culture medium containing test substances at 37° C. under 5% CO2.
(§3) Three independent experiments were performed, each concentration being tested in quadruplicate. Control cells were treated with vehicle alone. At the end of treatments, the cytotoxic activity was evaluated by a MTS assay (see § 3.3.).
(§4) Like MTT, MTS is bioreduced by cells into a formazan product that is directly soluble in culture medium without processing, unlike MTT.
(§5) At the end of the cells treatment, 40 μl of a 0.22 μm filtered freshly combined solution of MTS (20 ml at 2 mg/ml, Ref G1111, Batch 235897, Exp March 2009, Promega, Charbonnières, France) and PMS (1 ml at 0.92 mg/ml, Ref P9625, Batch 065K0961, Sigma) in Dulbecco's Phosphate Buffered Saline (DPBS, Ref 17-513Q, Batch 6MB0152, Cambrex), were added in each well. Culture plates were incubated for 2 h at 37° C. Absorbency (OD) were measured at 490 nm in each well using VICTOR^3™ 1420 multilabeled counter (Wallac, PerkinElmer, Courtaboeuf, France).
(§6) IC50: drug concentration to obtain a 50% inhibition of cell proliferation.
(§7) The dose-response curves were plotted using XLFit 3 (IDBS, United Kingdom). The IC50 determination values were calculated using the XLFit 3 software from semi-log curves. Individual IC50 determination values as well as mean and SD values were generated.

[2] = tested on: IGROV-1; format: cell-based, human; details: 24 h
Method: as §1, §2, §3, §4, §5, §6, §7

[3] = tested on: K-562; format: cell-based, human; details: 24 h
Method: as §1, §2, §3, §4, §5, §6, §7

[4] = tested on: A375 cells; test: Release of ATP (luciferase assay); format: cell-based, human; details: luciferase detection; concentration-dependent
Method: The supernatant of LTX-315-treated A375 cells was analyzed using an Enliten ATP luciferase assay kit (Promega, USA). Cells were then seeded as with an ROS assay, and treated with LTX-315 in different incubation times, from 1 to 15 minutes with two parallels, which was then conducted three times. Negative controls were untreated A375 cells exposed to serum-free media alone. Samples were diluted at 1:50 and 1:100, and analyzed with a Luminoscan RT luminometer according to the manufacturer's protocol.

[5] = tested on: murine A20 B cell lymphoma cells; test: Re-challenge with A20 B-cell lymphoma in mice with complete regression; format: in vivo, Balb-c mice
Method: Methods: Female Balb-c mice (n=4), previously treated with LTX-315, 1 mg) or (n=9); previously treated with LTX-315 0.5 or 1 mg) were re-inoculated (s.c. in the abdominal area) with either murine A20 B cell lymphoma cells or CT26WT colon carcinoma cells (5 million) respectively 6 weeks following initial treatment with LTX-315. Tumour growth was monitored for up to 36 days following re-inoculation.

[6] = tested on: A20 lymphoma; test: LTX-315 with metronomic CY in A20 lymphoma model; format: in vivo, Balb/c mice; details: LTX-315 alone, 1 mg i.t. once a day for 3 days
Method: Tumor cells were harvested, washed in RPMI-1640 and injected intradermally (i.d.) into the right side of the abdomen in Balb/c mice (5×10^6 A20 cells per mouse/50 μl RPMI-1640). When animals obtained palpable tumors (20-30 mm^2) animals were injected i.p. with a single dose of CY (day 4) dissolved in saline (2.0 mg CY/500 μl saline). […] Tumor size was measured using an electronic caliper and expressed as the area of an ellipse [(maximum dimension/2)×(minimum dimension/2)×π]. Animals were then euthanized when the product of the perpendicular tumor dimensions reached 130 mm^2 or when tumor ulceration developed.

[7] = tested on: panel of 10 lymphoma cell lines; format: cell-based, human
Method: Tumor cells were plated in 96-well flat-bottom microtitration plates (Nunc, Dutscher, Brumath, France) and incubated at 37° C. for 24 hours before treatment in 190 μl of drug-free and FBS-free culture medium.
[…] compounds in ¼ dilution step with a top dose of 400 μM (range 4×10^−4 to […]), with 1% (final concentration) Triton X-100 as positive control and FBS-free culture medium as negative control. The cells (190 μl) were incubated in a 200 μl final volume of FBS-free culture medium containing test substances at 37° C. under 5% CO2.
Three independent experiments were performed, each concentration being issued from quadruplicate. Control cells were treated with vehicle alone. At the end of treatments, the cytotoxic activity was evaluated by a MTS assay (see § 3.3 below).
as §4, §5
4.1. IC50 Data was Determined as in Example 1

[8] = tested on: A375 cells; test: Confocal microscopy with fluorescence-labeled peptide (internalization); format: cell-based, human; details: 3 μM and 1.5 μM, 30-60 min
Method: Subconfluential A375 cells were seeded at 8,000 cells/well as above, and transfected on the second day using the Lipofectamine LTX with Plus transfection reagents (Invitrogen) following the manufacturer's protocol. The mitochondria were labeled using the pDsRed2-Mito, and the nucleus was labeled using the GFP-Histon2B plasmid (Imaging Platform, University of Tromsø). A day after transfection, cells were washed twice with serum-free RPMI, and treated at different concentration and incubation periods with LTX-315 Pacific Blue or LTX-328 Pacific Blue. […] Control cells were treated with unlabeled LTX-315 and also with serum-free RPMI only. After incubation, cells were fixed with 4% paraformaldehyde in PBS, and the wells were covered with Prolong Gold antifade (Invitrogen). Cells were further analyzed by use of a Leica TCS SP5 confocal microscope, with a […] objective. Pacific Blue, GFP and Ds Red were excited using UV, with 488 and 561 lasers, and fluorescence channels were sequentially detected using the following band passes: UV: 420-480 nm (with attenuation), 488: 501-550 nm and 561: 576-676 nm.

[9] = tested on: A375 cells; test: Mitotracker confocal imaging (mitochondrial membrane potential); format: cell-based, human; details: short time after peptide treatment; data not shown
Method: Cells were seeded as for live cell imaging, and treated with Mitotracker CMH2XROS (Invitrogen) at […] for 15 minutes prior to peptide treatment. Cells were treated with 17 μM LTX-315, with negative control serum-free RPMI only. After 60 min of incubation, cells were analyzed using a Zeiss microscope. All confocal imaging experiments were subsequently conducted at least twice with similar results.

NCCCC[C@H](NC(=O)[C@@H](NC(=O)[C@H](Cc1c[nH]c2ccccc12)NC(=O)[C@H](CCCCN)NC(=O)[C@H](CCCCN)NC(=O)[C@H](Cc1c[nH]c2ccccc12)NC(=O)[C@H](Cc1c[nH]c2ccccc12)NC(=O)[C@H](CCCCN)NC(=O)[C@@H](N)CCCCN)C(c1ccccc1)c1ccccc1)C(N)=O [LTX-315, K-K-W-W-K-K-W-Dip-K-NH2] (H-KKWWKKW[Dip]K-NH2)
pIC50 [1]: 5.71
pIC50 [2]: 5.20
pIC50 [3]: 5.49
ATP release into supernatant [4]: ATP was detected in the supernatant as early as after 5 minutes of treatment
Tumour growth after re-inoculation versus control animals ([5]; all 4 mice previously treated with LTX-315 1 mg, re-inoculated 6 weeks after treatment, P<0.006): Significant inhibition
Mice with complete tumour regression after re-inoculation ([5]; of 4 mice previously treated with 1 mg): 3
Animals with relapse after re-inoculation ([5]; of 4 mice, 3 weeks later): 1
Animals with complete regression of palpable A20 tumors [6]: one of the animals
Animals with partial response [6]: remainder of the animals
Potency rank among the five compounds tested, lymphoma panel [7]: most potent compound from the five compounds tested
IC50 range against 10 human lymphoma cell lines ([7]; conclusion): micromolar range
Internalization of Pacific Blue-labeled peptide [8]: rapidly penetrated the plasma membrane
Mitochondrial membrane potential (Mitotracker signal) [9]: loss of mitochondrial signal
